{"source": "PubChem BioAssay (NCI)", "assay_in_all_cases": "DTP human tumour cell line panel, 48 h", "key": {"K-562 leukemia": {"system": "K-562 leukemia"}, "SK-OV-3 ovarian": {"system": "SK-OV-3 ovarian"}, "SN12C renal": {"system": "SN12C renal"}, "U251 CNS": {"system": "U251 CNS"}, "OVCAR-5 ovarian": {"system": "OVCAR-5 ovarian"}, "MALME-3M melanoma": {"system": "MALME-3M melanoma"}, "NCI-H226 lung": {"system": "NCI-H226 lung"}, "SW-620 colon": {"system": "SW-620 colon"}, "HCT-15 colon": {"system": "HCT-15 colon"}, "UACC-257 melanoma": {"system": "UACC-257 melanoma"}, "T-47D breast": {"system": "T-47D breast"}, "HCT-116 colon": {"system": "HCT-116 colon"}, "HL-60(TB) leukemia": {"system": "HL-60(TB) leukemia"}, "SNB-19 CNS": {"system": "SNB-19 CNS"}, "NCI-H522 lung": {"system": "NCI-H522 lung"}, "COLO 205 colon": {"system": "COLO 205 colon"}, "A549 NSCLC": {"system": "A549 NSCLC"}, "RXF 393 renal": {"system": "RXF 393 renal"}, "HT29 colon": {"system": "HT29 colon"}, "IGROV1 ovarian": {"system": "IGROV1 ovarian"}, "KM12 colon": {"system": "KM12 colon"}, "HOP-92 NSCLC": {"system": "HOP-92 NSCLC"}, "A498 renal": {"system": "A498 renal"}, "HOP-62 NSCLC": {"system": "HOP-62 NSCLC"}, "LOX IMVI melanoma": {"system": "LOX IMVI melanoma"}, "786-0 renal": {"system": "786-0 renal"}, "SNB-75 CNS": {"system": "SNB-75 CNS"}, "SF-539 CNS": {"system": "SF-539 CNS"}, "NCI-H23 lung": {"system": "NCI-H23 lung"}}, "note": "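Exposure lasted 48 hours, with cells grown in 96-well plates and compounds tested at five concentrations. GI50 marks 50% less growth. TGI is the concentration that stops growth completely.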"}
{"smiles": "Cn1cc(C2=C(c3c4n(c5ccccc35)CCC(CN)CC4)C(=O)NC2=O)c2ccccc21", "note": "(configuration not stated)", "values": [{"measurement": "GI50", "setting": "K-562 leukemia", "result": 4.72, "unit": "µM"}, {"measurement": "TGI", "setting": "K-562 leukemia", "result": 11.9, "unit": "µM"}, {"measurement": "GI50", "setting": "SK-OV-3 ovarian", "result": 4.99, "unit": "µM"}, {"measurement": "TGI", "setting": "SK-OV-3 ovarian", "result": 11.6, "unit": "µM"}, {"measurement": "GI50", "setting": "SN12C renal", "result": 3.87, "unit": "µM"}, {"measurement": "TGI", "setting": "SN12C renal", "result": 8.14, "unit": "µM"}, {"measurement": "GI50", "setting": "U251 CNS", "result": 3.74, "unit": "µM"}, {"measurement": "TGI", "setting": "U251 CNS", "result": 7.21, "unit": "µM"}, {"measurement": "GI50", "setting": "OVCAR-5 ovarian", "result": 3.51, "unit": "µM"}, {"measurement": "TGI", "setting": "OVCAR-5 ovarian", "result": 9.14, "unit": "µM"}, {"measurement": "GI50", "setting": "MALME-3M melanoma", "result": 3.8, "unit": "µM"}, {"measurement": "TGI", "setting": "MALME-3M melanoma", "result": 7.88, "unit": "µM"}, {"measurement": "GI50", "setting": "NCI-H226 lung", "result": 5.01, "unit": "µM"}, {"measurement": "TGI", "setting": "NCI-H226 lung", "result": 16.2, "unit": "µM"}, {"measurement": "GI50", "setting": "SW-620 colon", "result": 3.87, "unit": "µM"}, {"measurement": "TGI", "setting": "SW-620 colon", "result": 7.9, "unit": "µM"}, {"measurement": "GI50", "setting": "HCT-15 colon", "result": 4.82, "unit": "µM"}, {"measurement": "TGI", "setting": "HCT-15 colon", "result": 9.93, "unit": "µM"}, {"measurement": "GI50", "setting": "UACC-257 melanoma", "result": 3.89, "unit": "µM"}, {"measurement": "TGI", "setting": "UACC-257 melanoma", "result": 7.57, "unit": "µM"}, {"measurement": "GI50", "setting": "T-47D breast", "result": 4.52, "unit": "µM"}, {"measurement": "TGI", "setting": "T-47D breast", "result": 9.87, "unit": "µM"}, {"measurement": "GI50", "setting": "HCT-116 colon", "result": 3.51, "unit": "µM"}, {"measurement": "TGI", "setting": "HCT-116 colon", "result": 7.26, "unit": "µM"}, {"measurement": "GI50", "setting": "HL-60(TB) leukemia", "result": 5.22, "unit": "µM"}, {"measurement": "TGI", "setting": "HL-60(TB) leukemia", "result": 11.5, "unit": "µM"}, {"measurement": "GI50", "setting": "SNB-19 CNS", "result": 4.52, "unit": "µM"}, {"measurement": "TGI", "setting": "SNB-19 CNS", "result": 10.7, "unit": "µM"}, {"measurement": "GI50", "setting": "NCI-H522 lung", "result": 4.08, "unit": "µM"}, {"measurement": "TGI", "setting": "NCI-H522 lung", "result": 8.11, "unit": "µM"}, {"measurement": "GI50", "setting": "COLO 205 colon", "result": 3.49, "unit": "µM"}, {"measurement": "TGI", "setting": "COLO 205 colon", "result": 7.45, "unit": "µM"}, {"measurement": "GI50", "setting": "A549 NSCLC", "result": 4.14, "unit": "µM"}, {"measurement": "TGI", "setting": "A549 NSCLC", "result": 9.24, "unit": "µM"}, {"measurement": "GI50", "setting": "RXF 393 renal", "result": 3.65, "unit": "µM"}, {"measurement": "TGI", "setting": "RXF 393 renal", "result": 7.1, "unit": "µM"}, {"measurement": "GI50", "setting": "HT29 colon", "result": 2.88, "unit": "µM"}, {"measurement": "TGI", "setting": "HT29 colon", "result": 9.29, "unit": "µM"}, {"measurement": "GI50", "setting": "IGROV1 ovarian", "result": 3.98, "unit": "µM"}, {"measurement": "TGI", "setting": "IGROV1 ovarian", "result": 8.75, "unit": "µM"}, {"measurement": "GI50", "setting": "KM12 colon", "result": 3.88, "unit": "µM"}, {"measurement": "TGI", "setting": "KM12 colon", "result": 7.39, "unit": "µM"}, {"measurement": "GI50", "setting": "HOP-92 NSCLC", "result": 2.92, "unit": "µM"}, {"measurement": "TGI", "setting": "HOP-92 NSCLC", "result": 7.69, "unit": "µM"}, {"measurement": "GI50", "setting": "A498 renal", "result": 3.96, "unit": "µM"}, {"measurement": "TGI", "setting": "A498 renal", "result": 7.55, "unit": "µM"}, {"measurement": "GI50", "setting": "HOP-62 NSCLC", "result": 3.93, "unit": "µM"}, {"measurement": "TGI", "setting": "HOP-62 NSCLC", "result": 8.22, "unit": "µM"}, {"measurement": "GI50", "setting": "LOX IMVI melanoma", "result": 5.26, "unit": "µM"}, {"measurement": "TGI", "setting": "LOX IMVI melanoma", "result": 11.4, "unit": "µM"}, {"measurement": "GI50", "setting": "786-0 renal", "result": 4.58, "unit": "µM"}, {"measurement": "TGI", "setting": "786-0 renal", "result": 8.55, "unit": "µM"}, {"measurement": "GI50", "setting": "SNB-75 CNS", "result": 1.09, "unit": "µM"}, {"measurement": "TGI", "setting": "SNB-75 CNS", "result": 4.9, "unit": "µM"}, {"measurement": "GI50", "setting": "SF-539 CNS", "result": 3.91, "unit": "µM"}, {"measurement": "TGI", "setting": "SF-539 CNS", "result": 7.35, "unit": "µM"}, {"measurement": "GI50", "setting": "NCI-H23 lung", "result": 5.05, "unit": "µM"}]}
